The nature of this series: solvent given as SMILES.
Setting [1] is: in O=P(c1ccccc1)(c1ccccc1)c1ccccc1Oc1ccccc1P(=O)(c1ccccc1)c1ccccc1.

Where “and” joins values, the source holds several entries; their conditions need not be identical. Equal entries are not always repeated.

As to `CCCCCCCCCCOC(=O)c1ccc2c3ccc(C(=O)OCCCCCCCCCC)c4c(C(=O)OCCCCCCCCCC)cc5[nH]c6cc(C(=O)OCCCCCCCCCC)c1c2c6c5c43`, the emission maximum (in C1CCOC1) was 493 nm.

On to `CCN(CC)c1ccc2c(c1)oc(=O)c1c(-c3ccccc3C(=O)O)c3ccc(=[N+](CC)CC)cc-3oc12`, for which the emission maximum was determined as 637 nm (in CCO), 636 nm (in ClC(Cl)Cl) and 646 nm (in O).

Consider `c1ccc(-c2nc(-c3ccc(N4c5ccccc5C(c5ccccc5)(c5ccccc5)c5ccccc54)cc3)cc(-c3ccc(N4c5ccccc5C(c5ccccc5)(c5ccccc5)c5ccccc54)cc3)n2)cc1`, for which the emission maximum turned out to be 456 nm (in Cc1ccccc1) and 462 nm (in O=P(c1ccccc1)(c1ccccc1)c1ccc2oc3ccc(P(=O)(c4ccccc4)c4ccccc4)cc3c2c1).

For the compound `CCN(CC)c1ccc2c(C)cc(=O)oc2c1`, the emission maximum (in C1CCCCC1) was determined as 395 nm; the emission maximum (in CC#N) is given as 430 nm; the emission maximum (in CCCCCCCCO) was found to be 443 nm; the emission maximum (in CCCCCCO) came to 444 nm; the emission maximum (in CCCCO) is recorded as 447 nm; the emission maximum (in CCCO) amounted to 452 nm. In addition, the emission maximum is 454 nm and 451 nm (in CCO); 416 nm (in CCOC(C)=O); 462 nm (in CO); 470 nm (in O); 463 nm (in OCC(O)CO).

The compound `CCCCCCn1c2cc(/C=C(\C#N)c3ccccc3)ccc2c2ccc(/C=C(\C#N)c3ccccc3)cc21` yielded an emission maximum (in ClC(Cl)Cl) of 469.48 nm.

Compound `c1ccc(-c2nc(-c3ccc(N4c5ccccc5C(c5ccccc5)(c5ccccc5)c5ccccc54)cc3)cc(-c3ccccn3)n2)cc1` yielded an emission maximum (in Cc1ccccc1) of 460 nm and an emission maximum under setting [1] of 468 nm.

As for `c1ccc(-c2ccc(-c3ccc4c(c3)CCO4)cc2)cc1`, the emission maximum (in C1CCCCC1) worked out at 377 nm.

The compound `c1ccc2sc(-c3ccc(-c4nnc(-c5ccc(-c6nnc(-c7ccc(-c8cc9ccccc9s8)s7)o6)cc5)o4)s3)cc2c1` had an emission maximum (in C1COCCO1) of 397 nm; an emission maximum (in CC#N) of 399 nm; an emission maximum (in CC(=O)N(C)C) of 406 nm; an emission maximum (in CCCCCCCCCCO) of 389 nm; an emission maximum (in CCCCCCCCO) of 399 nm; an emission maximum (in CCCCCCO) of 399 nm. This compound had an emission maximum (in CCCCO) of 399 nm; an emission maximum (in CCO) of 400 nm; an emission maximum (in CS(C)=O) of 423 nm; an emission maximum (in Cc1ccccc1) of 399 nm; an emission maximum (in ClC(Cl)Cl) of 399 nm.

On to `CCCc1ccc2c(c1)cc1n2B2c3c4c-1cccc4cc1cccc(c31)-c1cc3cc(CCC)ccc3n12`, for which the emission maximum (in C1CCOC1) is 565 nm.

With `COc1ccc(C#Cc2ccc(C#N)cc2)cc1OC`, the emission maximum runs as follows: (in C1COCCO1) 400 nm; (in CC#N) 451 nm; (in CCCCCC) 346 nm; (in CCCCCCC) 347 nm; (in CCCO) 425 nm; (in CCOC(C)=O) 408 nm. In addition, the emission maximum (in CS(C)=O) worked out at 462 nm, the emission maximum (in ClC(Cl)Cl) came to 404 nm and the emission maximum (in ClCCl) is listed as 417 nm.

`F[B-]1(F)Oc2ccccc2-c2n(-c3ccc(C(F)(F)F)cc3)c(-c3ccccc3)c(-c3ccccc3)[n+]21` gave an emission maximum (in C1CCOC1) of 390 nm.

For the compound `CCCCC1=C(CCCC)c2cccc3c2c(cc2nc4ccccc4nc23)O1`, the emission maximum (in ClCCl) was 567 nm.

On to `CCCCCCc1ccc(-n2c3[n+](c4c5ccccc5c5ccccc5c42)[B-](C)(C)c2cc(-n4c5ccccc5c5ccccc54)ccc2-3)cc1`, for which the emission maximum was 409 nm (in C1CCOC1), 409 nm (in CC#N), 410 nm (in Cc1ccccc1) and 408 nm (in ClCCl).

For `c1cc2ccc1CCCc1ccc(c3nsnc13)CCC2`, the emission maximum came to 468 nm (in C1CCCCC1), 497 nm (in CC#N) and 496 nm (in ClC(Cl)Cl).

For the compound `c1ccc(-c2nc(-c3ccccc3)nc(-c3ccc(-n4c5ccccc5c5c6c(ccc54)-c4ccccc4C6(c4ccccc4)c4ccccc4)cc3)n2)cc1`, the emission maximum is, setting by setting: (in C1CCOC1) 504.15 nm; (in CCCCCC) 407.03 nm; (in Cc1ccccc1) 446 nm; (in ClCCl) 530.05 nm; under setting [1], 475 nm.

`Cc1nc2c(ccc3ccc(N(C)C)cc32)oc1=O` came in with an emission maximum (in c1ccccc1) of 564 nm.

In turn, `CN(C)c1ccc(/C=C/c2cc(/C=C/c3ccc(N(C)C)cc3)nc(N)n2)cc1` yielded an emission maximum (in Cc1ccccc1) of 466 nm and an emission maximum (in ClC(Cl)Cl) of 511 nm.

`CN(C)c1ccc2nc(/C=C/c3cc4c5c(c3)CCCN5CCC4)c(=O)oc2c1`: the emission maximum amounted to 543 nm (in C1CCCCC1); 611 nm (in C1COCCO1); 709 nm (in CC#N); 679 nm (in CC(C)=O); 540 nm (in CCCCCCC); 705 nm (in CCO). Also, the emission maximum stood at 628 nm (in CCOC(C)=O); 704 nm (in CN(C)C=O); 715 nm (in CS(C)=O); 596 nm (in Cc1ccccc1); 671 nm (in ClC(Cl)Cl); 678 nm (in ClCCl).

As to `Cc1nc2cccc(-c3nc4ccccc4[nH]3)c2c(=O)[nH]1`, the emission maximum (in CN(C)C=O) is listed as 441 nm.

With `COc1ccc2oc(-c3cc4cc(OC)ccc4oc3=O)cc2c1`, the emission maximum is recorded as 480 nm (in CC#N), 443 nm (in CCOC(C)=O), 484 nm (in CS(C)=O) and 446 nm (in Cc1ccccc1).

As for `Cc1ccc(/C2=c3\cc/c(o3)=C(\c3ccc(C)cc3)c3ccc([nH]3)-c3ccc4n3[B-](F)(F)[N+]3=C(C=CC3=C4c3ccc[nH]3)c3ccc2[nH]3)cc1`, the emission maximum (in ClC(Cl)Cl) is reported as 729 nm.

On to `COc1cc2c(cc1OC)C1=C[C@H](c3ccc(Cl)cc3)C3(C(C#N)=C(C#N)N1CC2)c1cc(Cl)ccc1-c1ccc(Cl)cc13`, for which the emission maximum (in ClCCl) is 406 nm.

For `CCCCCCCc1ccc(C2=[N+]3C(=C4c5cc(OCC(CC)CC)c(-c6ccc(CCCCCCC)o6)n5[B-](F)(F)[n+]5nnn(c54)[B-]3(F)F)C=C2OCC(CC)CC)o1`, the emission maximum reads like this: (in C1CCOC1) 829 nm; (in ClCCl) 835 nm.

Where the note is “in ClCCl”, `C1=Cc2nc1c(-c1ccccc1)c1ccc([nH]1)c(-c1ccccc1)c1cc(c(-c3ccccc3)c3ccc([nH]3)c2-c2ccccc2)N=C1` returned an emission maximum of 744 nm.

Regarding `N#Cc1nc(N(Cc2ccccc2)Cc2ccccc2)c(C#N)nc1N(Cc1ccccc1)Cc1ccccc1`, the emission maximum (in ClC(Cl)Cl) is on record as 588 nm.

The compound `CCn1c(-c2ccc(-c3ccc4c(c3)C(c3ccccc3)(c3ccccc3)c3ccccc3-4)cc2)c(-c2ccc3ccccc3c2)c(-c2ccc3ccccc3c2)c1-c1ccc(-c2ccc3c(c2)C(c2ccccc2)(c2ccccc2)c2ccccc2-3)cc1` came in with an emission maximum (in CCOC(C)=O) of 441 nm.

With `O=C(O)CC[N+]1=c2cc3c(cc2CCC1)=Cc1c(c2cc4c5c(c2oc1=O)CCCN5CCC4)O3`, the emission maximum is, setting by setting: (in CC#N) 683 nm; (in CO) 679 nm; (in ClCCl) 675 nm; (in O) 684 nm.

For `CCOC(=O)C1=C(N)n2c(=O)c3ccccc3c(=O)n2C1c1ccc([N+](=O)[O-])cc1` (centres undefined), the emission maximum (in CS(C)=O) was found to be 510 nm.

With `c1ccc2c(-c3cc4c(ccc5sc(-c6cccc7ccccc67)cc54)s3)cccc2c1`, the emission maximum (in ClCCl) is 423 nm.

Turning to `CCCCn1c2ccc(-c3ccccc3)cc2c2ccc3c4cc(-c5ccccc5)ccc4n(CCCC)c3c21`, the emission maximum (in ClC(Cl)Cl) was 414 nm.

Compound `Cn1nc(-c2ccccc2)cc1-c1ccccc1` yielded an emission maximum (in ClCCl) of 338 nm.

As to `Cc1ccc2nc(-c3cc(-c4nc5ccc(C)cc5[nH]4)cc(-c4nc5ccc(C)cc5[nH]4)c3)[nH]c2c1`, the emission maximum (in CS(C)=O) was determined as 386.5 nm.

On to `N#Cc1c(-n2c3ccc(Br)cc3c3cc(Br)ccc32)c(C#N)c(-n2c3ccc(Br)cc3c3cc(Br)ccc32)c(-n2c3ccc(Br)cc3c3cc(Br)ccc32)c1-n1c2ccc(Br)cc2c2cc(Br)ccc21`, for which the emission maximum (in Cc1ccccc1) amounted to 521 nm.

Take `COC(=O)C(N)Cc1ccc(O[Si]2(Oc3ccc(CC(N)C(=O)OC)cc3)n3c4c5ccccc5c3/N=C3N=C(/N=c5/c6ccccc6/c(n52)=N/C2=NC(=N\4)/c4ccccc42)c2ccccc2\3)cc1` (centres undefined): the emission maximum (in CN(C)C=O) is reported as 687 nm.

Regarding `N#Cc1ccc(-c2ccc(C3=CCCCC3)s2)s1`, the emission maximum reads like this: (in C1CCOC1) 441 nm; (in CC#N) 448 nm; (in CCCCCC) 427 nm; (in CCO) 436 nm; (in OCCOCCO) 449 nm; (in c1ccncc1) 448 nm.

Compound `CCN(CC)c1ccc2cc(-c3nc4ccccc4n3C)c(=O)oc2c1` came in with an emission maximum (in CC#N) of 480 nm.

Consider `CSc1ccc2c(c1)N(CCCN1CCN(C)CN1C)c1ccccc1S2`, for which the emission maximum is 455 nm (in CC#N), 453 nm (in CO) and 466 nm (in O).

Values taken from the Deep4Chem optical property database.
